Source: patent US6849612B2, “Oligonucleotide modulation of cell adhesion” (ISIS Pharmaceuticals, Inc., priority 1993, dated 2005)
Strand notation (5' to 3'): a small letter for the sugar, then the base; units joined by * are phosphorothioate-linked, units joined directly phosphodiester-linked; [ ] holds rarer units or linkages, { } end groups; capitals alone tell only the bases. d = 2'-deoxy (DNA)

How the values were obtained:
ICAM-1 = experiment: ELISA screening for ICAM-1 expression in interleukin-1β-stimulated cells (HUVEC and A549); type: cell-based, human; settings: interleukin-1β-stimulated cells, two cell lines (HUVEC, A549)
VCAM-1 = experiment: ELISA of VCAM-1 expression in TNF-stimulated HUVEC; type: cell-based, human; settings: for VCAM-1 EXPRESSION 30 nM oligo (VCAM-1 expression is given as % of control) / VCAM-1 EXPRESSION 50 nM oligo (VCAM-1 expression is given as % of control): TNF-α 16 hours; for IC50: TNF-α, read-out: IC50 for inhibition of VCAM-1 expression (asterisk)
Protocol: Primary human umbilical vein endothelial (HUVEC) cells, passage 2 to 5, were plated in 96-well plates and allowed to reach confluence. Cells were washed three times with Opti-MEM (GIBCO, Grand Island N.Y.). Cells were treated with increasing concentrations of oligonucleotide diluted in Opti-MEM containing 10 μg/ml DOTMA solution (Bethesda Research Labs, Bethesda, Md.) for 4 hours at 370C. The medium was removed and replaced with EGM-UV (Clonetics, San Diego Calif.) plus oligonucleotide. Tumor necrosis factor α was added to the medium (2.5 ng/ml) and the cells were incubated an additional 4 hours at 37° C.
ELAM-1 expression was determined by ELISA. Cells were gently washed three times with Dulbecco's phosphate-buffered saline (D-PBS) prewarmed to 37° C. Cells were fixed with 95% ethanol at 4° C. for 20 minutes, washed three times with D-PBS and blocked with 2% BSA in D-PBS. Cells were incubated with ELAM-1 monoclonal antibody BBA-1 (R&D Systems, Minneapolis Minn.) diluted to 0.5 μg/ml in D-PBS containing 2% BSA for 1 hour at 37° C. Cells were washed three times with D-PBS and the bound ELAM-1 antibody detected with biotinylated goat anti-mouse secondary antibody followed by β-galactosidase-conjugated streptavidin as described in Example 1.
Inhibition of VCAM-1 expression by fifteen antisense phosphorothioate oligonucleotides was determined using the ELISA assay approximately as described in Example 12, except that cells were stimulated with TNF-àfor 16 hours and VCAM-1 expression was detected by a VCAM-1 specific monoclonal antibody (R & D Systems, Minneapolis, Minn.) used at 0.5 μg/ml.

Substance	inhibition of ICAM-1 expression, relative activity in words (ICAM-1)	VCAM-1 EXPRESSION 30 nM oligo (VCAM-1 expression is given as % of control) (VCAM-1)	VCAM-1 EXPRESSION 50 nM oligo (VCAM-1 expression is given as % of control) (VCAM-1)	IC50 (VCAM-1)
ISIS 1573: P=S, human ICAM-1 3′-Untranslated (2849-2866), SEQ ID NO 4, GAGGCTGAGGTGGGAGGA (antisense dG*dA*dG*dG*dC*dT*dG*dA*dG*dG*dT*dG*dG*dG*dA*dG*dG*dA)	not as active as ISIS-1939	–	–	–
ISIS 1931: P=S, human ICAM-1 AUG Codon (55-74), SEQ ID NO 7, CATAGCGAGGCTGAGGTTGC (antisense dC*dA*dT*dA*dG*dC*dG*dA*dG*dG*dC*dT*dG*dA*dG*dG*dT*dT*dG*dC)	inhibit ICAM-1 expression	–	–	–
ISIS 1932: P=S, human ICAM-1 AUG Codon (72-91), SEQ ID NO 8, CGGGGGCTGCTGGGAGCCAT (antisense dC*dG*dG*dG*dG*dG*dC*dT*dG*dC*dT*dG*dG*dG*dA*dG*dC*dC*dA*dT)	slightly less active than ISIS 1570 and ISIS 1931	–	–	–
ISIS 1933: P=S, human ICAM-1 Coding Region (111-130), SEQ ID NO 9 (antisense dA*dG*dA*dG*dC*dC*dC*dC*dG*dA*dG*dC*dA*dG*dG*dA*dC*dC*dA*dG)	weak activity	–	–	–
ISIS 1934: P=S, human ICAM-1 Coding Region (351-370), SEQ ID NO 10 (antisense dT*dG*dC*dC*dC*dA*dT*dC*dA*dG*dG*dG*dC*dA*dG*dT*dT*dT*dG*dA)	weak activity	–	–	–
ISIS 1935: P=S, human ICAM-1 Coding Region (889-908), SEQ ID NO 11 (antisense dG*dG*dT*dC*dA*dC*dA*dC*dT*dG*dA*dC*dT*dG*dA*dG*dG*dC*dC*dT)	weak activity	–	–	–
ISIS 1936: P=S, human ICAM-1 Coding Region (1459-1468), SEQ ID NO 12 (antisense dC*dT*dC*dG*dC*dG*dG*dG*dT*dG*dA*dC*dC*dT*dC*dC*dC*dC*dT*dT)	weak activity	–	–	–
ISIS 1937: P=S, human ICAM-1 Termination Codon (1651-1687), SEQ ID NO 13, TCAGGGAGGCGTGGCTTGTG (antisense dT*dC*dA*dG*dG*dG*dA*dG*dG*dC*dG*dT*dG*dG*dC*dT*dT*dG*dT*dG)	moderate activity	–	–	–
ISIS 1938: P=S (printed P = 5), human ICAM-1 Termination Codon (1668-1687), SEQ ID NO 14, CCTGTCCCGGGATAGGTTCA (antisense dC*dC*dT*dG*dT*dC*dC*dC*dG*dG*dG*dA*dT*dA*dG*dG*dT*dT*dC*dA)	moderate activity	–	–	–
ISIS 2307: P=S, human ICAM-1 3′-Untranslated (1976-1995), SEQ ID NO 26 (antisense dT*dG*dT*dC*dC*dT*dC*dA*dT*dG*dG*dT*dG*dG*dG*dG*dC*dT*dA*dT)	least active of the series	–	–	–
ISIS 2634: 2′-fluoro A, C & U; P=S, human ICAM-1 AUG-Codon (64-81), SEQ ID NO 1 (antisense TGGGAGCCATAGCGAGGC; DNA at G, 2'-fluoro at ACT, all phosphorothioate, T or U not given here)	less effective	–	–	–
ISIS 2637: 2′-fluoro A, C & U, human ICAM-1 3′-Untrans. (1952-1971), SEQ ID NO 15 (antisense CCCCCACCACTTCCCCTCTC; all 2'-fluoro, backbone and T or U not given here; further chemistry not fully specified)	did not exhibit this level of activity	–	–	–
ISIS 2973: 2′-O-methyl; P=S, human ICAM-1 3′-Untrans. (1952-1971), SEQ ID NO 15 (CCCCCACCACTTCCCCTCTC; listed as DNA, chemistry not fully specified)	did not exhibit this level of activity	–	–	–
ISIS 2974: 2′-O-methyl; P=S, human ICAM-1 AUG Codon (64-81), SEQ ID NO 1 (TGGGAGCCATAGCGAGGC; listed as DNA, chemistry not fully specified)	approximately threefold less effective than ISIS 1570	–	–	–
ISIS 3800: phosphorothioate, human VCAM-1 3′-UTR 2620-2639, SEQ ID NO 70, GCAATCTTGCTATGGCATAA (DNA, all phosphorothioate, methylation of C not given here)	–	64.4 % of control	47.7 % of control	≤ 0.05 µM
ISIS 3801: phosphorothioate, human VCAM-1 3′-UTR 2872-2892, SEQ ID NO 50, AACCCAGTGCTCCCTTTGCT (DNA, all phosphorothioate, methylation of C not given here)	–	36.5 % of control	21.3 % of control	≤ 0.05 µM
ISIS 3805: phosphorothioate, human VCAM-1 3′-UTR 2826-2845, SEQ ID NO 71, CCCGGCATCTTTACAAAACC (DNA, all phosphorothioate, methylation of C not given here)	–	7.7 % of control	44.9 % of control	≤ 0.05 µM
ISIS 5847: phosphorothioate, human VCAM-1 3′-UTR 2957-2976, SEQ ID NO 72, AACATCTCCGTACCATGCCA (DNA, all phosphorothioate, methylation of C not given here)	–	51.8 % of control	24.6 % of control	≤ 0.05 µM
ISIS 5862: phosphorothioate, human VCAM-1 5′-UTR 48-68, SEQ ID NO 62, CCTGTGTGTGCCTGGGAGGG (DNA, all phosphorothioate, methylation of C not given here)	–	115.0 % of control	3.5 % of control	–
ISIS 5863: phosphorothioate, human VCAM-1 CODING 745-764, SEQ ID NO 64, CAGCCTGCCTTACTGTGGGC (DNA, all phosphorothioate, methylation of C not given here)	–	95.8 % of control	66.7 % of control	–
ISIS 5874: phosphorothioate, human VCAM-1 CODING 1032-1052, SEQ ID NO 65, CTTGAACAATTAATTCCACCT (DNA, all phosphorothioate, methylation of C not given here)	–	66.5 % of control	35.3 % of control	≤ 0.05 µM
ISIS 5875: phosphorothioate, human VCAM-1 CODING 2183-2203, SEQ ID NO 68, GTCTTTGTTGTTTTCTCTTCC (DNA, all phosphorothioate, methylation of C not given here)	–	59.2 % of control	34.8 % of control	≤ 0.05 µM
ISIS 5876: phosphorothioate, human VCAM-1 CODING 2038-2057, SEQ ID NO 67, CTGTGTCTCCTGTCTCCGCT (DNA, all phosphorothioate, methylation of C not given here)	–	43.5 % of control	26.6 % of control	≤ 0.05 µM
ISIS 5884: phosphorothioate, human VCAM-1 5′-UTR 1-19, SEQ ID NO 60, CGATGCAGATACCGCGGAGT (antisense dC*dG*dA*dT*dG*dC*dA*dG*dA*dT*dA*dC*dC*dG*dC*dG*dG*dA*dG*dT)	–	79.2 % of control	37.2 % of control	≤ 0.05 µM
ISIS 5885: phosphorothioate, human VCAM-1 E/I 1633-1649 + intron, SEQ ID NO 66, TTACCATTGACATAAAGTGTT (DNA, all phosphorothioate, methylation of C not given here)	–	84.4 % of control	52.4 % of control	–
